Molecules are shown by their SMILES. Like-named read-outs stand apart in the source and are kept apart here.

The subject of one test is T1, Ts_Bad.
T1 construct: gene bad; His-tagged (vector pD861-CH), codon-optimised, expressed in E. coli BL21(DE3), purified anaerobically
The experiment in a line: NADH oxidation, A340. It counts as biochemical, Thermoanaerobacter sp. (strain X514). The conditions noted are these: 0.3 mM NADH, 100 mM MOPS-KOH pH 7.5, 55 °C, anaerobic. The text has this: NADH oxidation, A340 on Ts_Bad

Another test addresses T2, Tt_Hbd (Thermoanaerobacterium thermosaccharolyticum, UniProt P77851, D31A/I32R, form not given).
T2 construct: gene hbd; His-tagged (vector pD861-CH), codon-optimised, expressed in E. coli BL21(DE3)
The experiment in a line: NAD(P)H oxidation, A340. It counts as biochemical. The conditions noted are these: acetoacetyl-CoA as substrate, 100 mM MOPS-KOH pH 7.5, 55 °C. The source says: NAD(P)H oxidation, A340 on Tt_Hbd

T2 sequence (P77851 whole entry D31A/I32R, form open): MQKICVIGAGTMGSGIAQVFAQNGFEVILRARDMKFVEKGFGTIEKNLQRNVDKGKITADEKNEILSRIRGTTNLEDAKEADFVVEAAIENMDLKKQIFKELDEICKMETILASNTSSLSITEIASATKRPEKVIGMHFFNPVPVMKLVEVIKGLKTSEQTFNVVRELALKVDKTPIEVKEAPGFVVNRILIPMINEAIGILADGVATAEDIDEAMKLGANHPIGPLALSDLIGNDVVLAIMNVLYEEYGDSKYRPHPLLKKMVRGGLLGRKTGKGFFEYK

As for `CC(=O)SCCNC(=O)CCNC(=O)[C@H](O)C(C)(C)COP(=O)(O)OP(=O)(O)OC[C@H]1O[C@@H](n2cnc3c(N)ncnc32)[C@H](O)[C@@H]1OP(=O)(O)O` [Acetyl-CoA], in the test with Ts_Bad, the Km came to 90 ± 10 µM. Same read-out and setting: in the case of `CCCC(=O)SCCNC(=O)CCNC(=O)[C@H](O)C(C)(C)COP(=O)(O)OP(=O)(O)OC[C@H]1O[C@@H](n2cnc3c(N)ncnc32)[C@H](O)[C@@H]1OP(=O)(O)O` [Butyryl-CoA] it was 200 ± 100 µM. As to `NC(=O)C1=CN([C@@H]2O[C@H](COP(=O)(O)OP(=O)(O)OC[C@H]3O[C@@H](n4cnc5c(N)ncnc54)[C@H](O)[C@@H]3O)[C@@H](O)[C@H]2O)C=CC1` [NADH], the Km on Tt_Hbd (read-out: NADH / Km) amounted to 110 ± 20 µM. For the molecule `NC(=O)C1=CN([C@@H]2O[C@H](COP(=O)(O)OP(=O)(O)OC[C@H]3O[C@@H](n4cnc5c(N)ncnc54)[C@H](OP(=O)(O)O)[C@@H]3O)[C@@H](O)[C@H]2O)C=CC1` [NADPH], the Km on Tt_Hbd (read-out: NADPH / Km) was 30 ± 10 µM.

The record behind these values is publication PMC6652007, “Metabolic engineering of Clostridium thermocellum for n-butanol production from cellulose” (Biotechnology for Biofuels, 2019).
